Assay results from ChEMBL document CHEMBL1201862, “PubChem BioAssay data set” (2004).
“And” between values parts separate entries of the source, which are not always exact repeats. Equal entries are not always repeated.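 In this assay, cells in 96-well plates receive the compound at five concentrations for 48 hours. Endpoints are linearly interpolated between the surrounding concentrations. Here, GI50 denotes the concentration required for 50% inhibition of growth.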 The source made the active and inactive calls. No stated cut-off is given here; in the data, active = GI50 up to about 1.1 µM and inactive = higher.

Assays:
Assay in all cases: inhibition of tumour cell growth, NCI panel, 48 h
DU-145 = tested on: DU-145
UACC-257 = tested on: UACC-257
HOP-62 = tested on: HOP-62
SF-539 = tested on: SF-539
OVCAR-5 = tested on: OVCAR-5
IGROV-1 = tested on: IGROV-1
786-0 = tested on: 786-0
U-251 = tested on: U-251
SK-MEL-2 = tested on: SK-MEL-2
NCI-H23 = tested on: NCI-H23
A498 = tested on: A498
MDA-MB-231 = tested on: MDA-MB-231
NCI-H226 = tested on: NCI-H226
SN12C = tested on: SN12C
RPMI-8226 = tested on: RPMI-8226
HCT-116 = tested on: HCT-116
ACHN = tested on: ACHN
UO-31 = tested on: UO-31
EKVX = tested on: EKVX
OVCAR-8 = tested on: OVCAR-8

| SMILES | GI50 (DU-145) | GI50 (UACC-257) | GI50 (HOP-62) | GI50 (SF-539) | GI50 (OVCAR-5) | GI50 (IGROV-1) | GI50 (786-0) | GI50 (U-251) | GI50 (SK-MEL-2) | GI50 (NCI-H23) | GI50 (A498) | GI50 (MDA-MB-231) | GI50 (NCI-H226) | GI50 (SN12C) | GI50 (RPMI-8226) | GI50 (HCT-116) | GI50 (ACHN) | GI50 (UO-31) | GI50 (EKVX) | GI50 (OVCAR-8) |
| --- | --- | --- | --- | --- | --- | --- | --- | --- | --- | --- | --- | --- | --- | --- | --- | --- | --- | --- | --- | --- |
| CC(=O)c1ccc2c(c1)CC1(C2)Cc2ccc3c(c2C1=O)CCC3 (stereo not drawn) | 31.3 µM (inactive) | 10.8 µM (inactive) | 38.9 µM (inactive) | 27.7 µM (inactive) | 36.8 µM (inactive) | 55.2 µM (inactive) | 17.6 µM (inactive) | 34.8 µM (inactive) | 17.1 µM (inactive) | 31.2 µM (inactive) | 39.3 µM (inactive) | 35.6 µM (inactive) | 19 µM (inactive) | 31.8 µM (inactive) | 16.1 µM (inactive) | 28.3 µM (inactive) | 27.7 µM (inactive) | 28.4 µM (inactive) | – | – |
| N#CC1=C(N)N(c2ccccc2)C(c2ccccc2)C1(C#N)C#N (stereo not drawn) | 17.8 µM (inactive) | 19.1 µM (inactive) | 18 µM (inactive) | 14.7 µM (inactive) | 16.1 µM (inactive) | 15.7 µM (inactive) | 17.5 µM (inactive) | 17.1 µM (inactive) | 16.4 µM (inactive) | 20.8 µM (inactive) | 17.4 µM (inactive) | 14.3 µM (inactive) | 17.7 µM (inactive) | 18.8 µM (inactive) | 14.8 µM (inactive) | 14.5 µM (inactive) | 18.1 µM (inactive) | 18.1 µM (inactive) | 19.7 µM (inactive) | 16.2 µM (inactive) |
| Nc1ncnc2c1ncn2[C@@H]1C[C@H](NO)[C@@H](O)[C@H]1O | > 100 µM (inactive) | > 100 µM (inactive) | > 100 µM (inactive) | 33.5 µM (inactive) | > 100 µM (inactive) | > 100 µM (inactive) | > 100 µM (inactive) | > 100 µM (inactive) | > 100 µM (inactive) | > 100 µM (inactive) | > 100 µM (inactive) | > 100 µM (inactive) | > 100 µM (inactive) | > 100 µM (inactive) | 10.8 µM (inactive) | 4.88 µM (inactive) | > 100 µM (inactive) | 7.33 µM (inactive) | > 100 µM (inactive) | > 100 µM (inactive) |
| CSc1nc(C#N)c(/N=C\N(C)C)n1C | > 100 µM (inactive) | > 100 µM (inactive) | > 100 µM (inactive) | > 100 µM (inactive) | > 100 µM (inactive) | > 100 µM (inactive) | > 100 µM (inactive) | > 100 µM (inactive) | > 100 µM (inactive) | > 100 µM (inactive) | > 100 µM (inactive) | > 100 µM (inactive) | > 100 µM (inactive) | > 100 µM (inactive) | > 100 µM (inactive) | > 100 µM (inactive) | > 100 µM (inactive) | > 100 µM (inactive) | > 100 µM (inactive) | > 100 µM (inactive) |
| CCCNCC(O)CNc1ccc(NCC(O)CNCCC)c2c1C(=O)c1ccccc1C2=O (stereo not drawn) | 6.22 µM (inactive) | 7.85 µM (inactive) | 1.82 µM (inactive) | 1.71 µM (inactive) | 1.61 µM (inactive) | 2.04 µM (inactive) | 2.03 µM (inactive) | 2.57 µM (inactive) | 2.16 µM (inactive) | 3.24 µM (inactive) | 11.7 µM (inactive) | 2.98 µM (inactive) | 2 µM (inactive) | 1.78 µM (inactive) | 1.69 µM (inactive) | 2.56 µM (inactive) | 8.83 µM (inactive) | 12.6 µM (inactive) | 7.73 µM (inactive) | 2.26 µM (inactive) |
| C=C(Cl)C(Cl)(CBr)CCCC(C)(C)Cl (stereo not drawn) | 10.9 µM (inactive) | 3.15 µM (inactive) | 4.26 µM (inactive) | 2.47 µM (inactive) | 18.4 µM (inactive) | 33.3 µM (inactive) | 5.04 µM (inactive) | 2.11 µM (inactive) | 11.4 µM (inactive) | 45 µM (inactive) | 19.8 µM (inactive) | > 38.6 µM (inactive) | > 72.9 µM (inactive) | 60.8 µM (inactive) | 1.28 µM (inactive) | 14.1 µM (inactive) | 6.68 µM (inactive) | 14.5 µM (inactive) | 18.5 µM (inactive) | 18.7 µM (inactive) |
| CCCCCCCCCCCCCC(=O)CBr | 18.6 µM (inactive) | 13.2 µM (inactive) | 21.5 µM (inactive) | 13.2 µM (inactive) | 22.1 µM (inactive) | 5.79 µM (inactive) | 5.13 µM (inactive) | 14.6 µM (inactive) | 11.5 µM (inactive) | 9.77 µM (inactive) | 17.4 µM (inactive) | 16.3 µM (inactive) | 17.4 µM (inactive) | 16.6 µM (inactive) | 1.47 µM (inactive) | 12.3 µM (inactive) | 15 µM (inactive) | 8.93 µM (inactive) | 18.7 µM (inactive) | 14 µM (inactive) |
| CC(NC(=O)c1ccccc1)(C(=O)O)C(=O)O | > 100 µM (inactive) | > 100 µM (inactive) | > 100 µM (inactive) | > 100 µM (inactive) | > 100 µM (inactive) | > 100 µM (inactive) | > 100 µM (inactive) | > 100 µM (inactive) | > 100 µM (inactive) | > 100 µM (inactive) | > 100 µM (inactive) | > 100 µM (inactive) | > 100 µM (inactive) | > 100 µM (inactive) | > 100 µM (inactive) | > 100 µM (inactive) | > 100 µM (inactive) | > 100 µM (inactive) | > 100 µM (inactive) | > 100 µM (inactive) |
| Cc1ccc(C(=O)OC[C@H]2CC[C@@H](n3cc(N(C)C4CCCCC4)c(=O)[nH]c3=O)O2)cc1 | > 100 µM (inactive) | 32.7 µM (inactive) | 20.6 µM (inactive) | 23.8 µM (inactive) | 26.6 µM (inactive) | 33.4 µM (inactive) | 28.1 µM (inactive) | 20.2 µM (inactive) | 85.7 µM (inactive) | 43.9 µM (inactive) | 19.5 µM (inactive) | 14.9 µM (inactive) | 24.4 µM (inactive) | 20.7 µM (inactive) | 31.4 µM (inactive) | 16.7 µM (inactive) | 26.6 µM (inactive) | 13.9 µM (inactive) | 38.9 µM (inactive) | 28.1 µM (inactive) |
| CC(C)OC(=O)[C@@H]1OC(C)(C)O[C@H]1C(=O)OC(C)C | > 100 µM (inactive) | > 100 µM (inactive) | > 100 µM (inactive) | > 100 µM (inactive) | > 100 µM (inactive) | > 100 µM (inactive) | > 100 µM (inactive) | > 100 µM (inactive) | > 100 µM (inactive) | > 100 µM (inactive) | > 100 µM (inactive) | > 100 µM (inactive) | > 100 µM (inactive) | > 100 µM (inactive) | > 100 µM (inactive) | > 100 µM (inactive) | > 100 µM (inactive) | > 100 µM (inactive) | > 100 µM (inactive) | > 100 µM (inactive) |
| CN1CCN(c2ccc([N+](=O)[O-])c3no[n+]([O-])c23)CC1 | 0.141 µM (active) | 1.19 µM (inactive) | 0.0607 µM (active) | 0.0652 µM (active) | 1.76 µM (inactive) | 0.0719 µM (active) | 0.0452 µM (active) | 0.097 µM (active) | 1.34 µM (inactive) | < 0.0359 µM (active) | 1.04 µM (active) | 1.34 µM (inactive) | 0.604 µM (active) | 0.106 µM (active) | 0.0628 µM (active) | 0.12 µM (active) | 0.0395 µM (active) | 0.239 µM (active) | 1.19 µM (inactive) | 0.24 µM (active) |
| CSc1ncnc2c1cnn2Cc1cn(COCCO)nn1 | 49.3 µM (inactive) | > 100 µM (inactive) | 64.7 µM (inactive) | > 100 µM (inactive) | 88.5 µM (inactive) | 74.8 µM (inactive) | 18.7 µM (inactive) | 64.1 µM (inactive) | 39 µM (inactive) | 49.7 µM (inactive) | > 100 µM (inactive) | > 100 µM (inactive) | > 100 µM (inactive) | 64.6 µM (inactive) | 34.3 µM (inactive) | 45.4 µM (inactive) | > 100 µM (inactive) | > 100 µM (inactive) | – | – |
| N=C(N)N/N=C/c1c(-c2cc([N+](=O)[O-])c(Cl)cc2Cl)nc2sccn12 | 2.15 µM (inactive) and 449 nM (active) | 1.41 µM (inactive) and 1.44 µM (inactive) | 1.89 µM (inactive) | 1.53 µM (inactive) and 1.85 µM (inactive) | 1.87 µM (inactive) | – | 1.67 µM (inactive) | 1.05 µM (active) and 272 nM (active) | 1.91 µM (inactive) and 1 µM (active) | 1.56 µM (inactive) and 1.36 µM (inactive) | 1.62 µM (inactive) and 1.61 µM (inactive) | 200 nM (active) and 2.02 µM (inactive) | 2.04 µM (inactive) | 2 µM (inactive) and 1.34 µM (inactive) | 1.27 µM (inactive) and 1.75 µM (inactive) | – | 527 nM (active) and 1.67 µM (inactive) | 2.05 µM (inactive) and 1.29 µM (inactive) | 1.72 µM (inactive) and 1.77 µM (inactive) | 1.98 µM (inactive) and 2 µM (inactive) |
| O=C1/C(=N/O)Cc2c(Br)ccc(Br)c21 | 71.6 µM (inactive) | 42.2 µM (inactive) | > 100 µM (inactive) | > 100 µM (inactive) | > 100 µM (inactive) | 40 µM (inactive) | 74 µM (inactive) | 39.6 µM (inactive) | 17.9 µM (inactive) | 58.7 µM (inactive) | 68.1 µM (inactive) | 46.9 µM (inactive) | 68.1 µM (inactive) | – | 24.4 µM (inactive) | 55.1 µM (inactive) | 40.7 µM (inactive) | > 100 µM (inactive) | 28.2 µM (inactive) | 42.7 µM (inactive) |
